Results reported in publication PMC8288134, “Synthesis, potential antitumor activity, cell cycle analysis, and multitarget mechanisms of novel hydrazones incorporating a 4-methylsulfonylbenzene scaffold: a molecular docking study” (Journal of Enzyme Inhibition and Medicinal Chemistry, 2021).
Like-named read-outs stand apart in the source and are kept apart here.

Legend:
K-562 = assay: NCI antitumor screen (SRB); type: cell-based; conditions: Homo sapiens
MDA-MB-231/ATCC = assay: NCI antitumor screen (SRB); type: cell-based; conditions: Homo sapiens; for inhibition at 10 µM: one dose 10 µM, read-out: Growth inhibition percentage (GI%)
SW-620 = assay: NCI antitumor screen (SRB); type: cell-based; conditions: Homo sapiens; for inhibition at 10 µM: one dose 10 µM, read-out: Growth inhibition percentage (GI%)
NCI/ADR-RES = assay: NCI antitumor screen (SRB); type: cell-based; conditions: Homo sapiens; for inhibition at 10 µM: one dose 10 µM, read-out: Growth inhibition percentage (GI%)
NCI-H460 = assay: NCI antitumor screen (SRB); type: cell-based; conditions: Homo sapiens; for inhibition at 10 µM: one dose 10 µM, read-out: Growth inhibition percentage (GI%)
SN12C = assay: NCI antitumor screen (SRB); type: cell-based; conditions: Homo sapiens; for inhibition at 10 µM: one dose 10 µM, read-out: Growth inhibition percentage (GI%)
ACHN = assay: NCI antitumor screen (SRB); type: cell-based; conditions: Homo sapiens; for inhibition at 10 µM: one dose 10 µM, read-out: Growth inhibition percentage (GI%)
SF-268 = assay: NCI antitumor screen (SRB); type: cell-based; conditions: Homo sapiens; for inhibition at 10 µM: one dose 10 µM, read-out: Growth inhibition percentage (GI%)
OVCAR-5 = assay: NCI antitumor screen (SRB); type: cell-based; conditions: Homo sapiens; for inhibition at 10 µM: one dose 10 µM, read-out: Growth inhibition percentage (GI%)
SK-MEL-5 = assay: NCI antitumor screen (SRB); type: cell-based, human; conditions: for inhibition at 10 µM: read-out: Growth inhibition percentage (GI%)
LOX IMVI = assay: NCI antitumor screen (SRB); type: cell-based; conditions: Homo sapiens; for inhibition at 10 µM: one dose 10 µM, read-out: Growth inhibition percentage (GI%)
OVCAR-3 = assay: NCI antitumor screen (SRB); type: cell-based; conditions: Homo sapiens; for inhibition at 10 µM: one dose 10 µM, read-out: Growth inhibition percentage (GI%)
HOP-62 = assay: NCI antitumor screen (SRB); type: cell-based; conditions: Homo sapiens
[1] = tested on: breast cancer tumour cell lines; conditions: cited from earlier work
HL60 cells = assay: Cell cycle analysis (PI, flow cytometry); type: cell-based, human; conditions: HL60, 10.0 µM, 24 h
Method: Antitumor agents can induce apoptosis by activating signalling pathways, leading to G2/M phase arrest[73]^,[74]. Flow cytometry is used to measure cell growth in different cell cycle phases (pre-G1, G1, S, and G2/M)[73]^,[74]. […]. We used the solvent DMSO as a negative control. Briefly, we incubated HL60 cells with 10 µM compounds 6, 9, 16, and 20 for 24 h. Compounds 6, 9, 16, and 20 interfered with the normal cell cycle of HL60 cells. […] […].
Cell cycle analysis was carried out similar to our previous report using the Leukaemia HL-60 cell line stained with the DNA fluorochrome PI and analysed by FACSCalibur flow cytometer[40]^,[74].
Using a method similar to that of our previous report, cell cycle analysis was carried out using Leukemia HL-60 cell line, stained with the DNA fluorochrome PI, and analyzed by FACSCalibur flow cytometer. Leukemia HL-60 cell was seeded at a density of 2 × 10^5 cells/well and incubated for 24 h in six-well plates. Fetal bovine serum (10%) was added, and the cells were incubated at 37°C in an atmosphere of 5% CO2. The medium was replaced with 1% (v/v) dimethyl sulfoxide (DMSO), containing 10.0 μM of compound 9. […]
Afterward, […]
the samples were analyzed using a FACSCalibur flow cytometer. […]
(AA) to PGH2. […]

[2] = tested on: full panel of 59 cancer cell lines; assay: NCI antitumor screen, full panel; conditions: for PCE: positive cytotoxic effect (number of cell lines with GI 10 to 100% / total number of cell lines): one dose 10 µM
SK-MEL-28 = assay: NCI antitumor screen (SRB); type: cell-based, human; conditions: for inhibition at 10 µM: read-out: Growth inhibition percentage (GI%)
[3] = K562, K-562, one dose 10 µM, read-out: Growth inhibition percentage (GI%)
[4] = Homo sapiens, SK-MEL-5, one dose 10 µM
[5] = HOP-62, one dose 10 µM, read-out: Growth inhibition percentage (GI%)
[6] = K562, read-out: Growth inhibition percentage (GI%)
[7] = Homo sapiens, SK-MEL-28, one dose 10 µM
[8] = HOP-62, read-out: Growth inhibition percentage (GI%)
[9] = Homo sapiens, SK-MEL-28, SK-MEL-28, one dose 10 µM
[10] = five concentrations 0.01-100 µM

Structure (SMILES): O=c1[nH]cc(F)c(=O)[nH]1 [Compound 5-Fu, 5-fluorouracil, reference compound]
- inhibition at 10 µM (K-562; [3]): 57.7%
- inhibition at 10 µM (MDA-MB-231/ATCC): 21.9%
- inhibition at 10 µM (SW-620): 49.9%
- inhibition at 10 µM (NCI/ADR-RES): 52.4%
- inhibition at 10 µM (NCI-H460): 87%
- inhibition at 10 µM (SN12C): 46%
- inhibition at 10 µM (ACHN): 60.7%
- inhibition at 10 µM (SF-268): 41%
- inhibition at 10 µM (OVCAR-5): 55.7%
- inhibition at 10 µM (SK-MEL-5; [4]): 66.3%
- inhibition at 10 µM (LOX IMVI): 69.6%
- inhibition at 10 µM (OVCAR-3): 52.6%
- inhibition at 10 µM (HOP-62; [5]): 52.2%
- GI50 ([1]; read-out: GI50 (subpanel average), reference drugs, ref https://dtp.cancer.gov/dtpstandard/dwindex/index.jsp): 6870 nM
- CC50 ([1]; read-out: LC50 (subpanel average), reference drugs, ref https://dtp.cancer.gov/dtpstandard/dwindex/index.jsp): > 100000 nM
- TGI (subpanel average) ([1]; reference drugs, ref https://dtp.cancer.gov/dtpstandard/dwindex/index.jsp): 68010 nM

Structure (SMILES): CS(=O)(=O)c1ccc(C(=O)NN=Cc2cccc3ccccc23)cc1 [Compound 6, 4-(Methylsulfonyl)-N'-(naphthalen-1-ylmethylene)benzohydrazide]
- inhibition at 10 µM (K-562; [6]): 72.2%
- inhibition at 10 µM (MDA-MB-231/ATCC): < 10%
- inhibition at 10 µM (SW-620): 63.8%
- inhibition at 10 µM (NCI/ADR-RES): 26.5%
- %G0-G1 (HL60 cells): 48.31%
- %G2-M (HL60 cells): 23.27%
- %Pre-G1 (HL60 cells): 12.57%
- %S (HL60 cells): 28.42%
- inhibition at 10 µM (NCI-H460): 33.2%
- inhibition at 10 µM (SN12C): 12.6%
- PCE: positive cytotoxic effect (number of cell lines with GI 10 to 100% / total number of cell lines) [2]: 52/59
- inhibition at 10 µM (ACHN): < 10%
- inhibition at 10 µM (SF-268): 14.3%
- inhibition at 10 µM (OVCAR-5): < 10%
- inhibition at 10 µM (SK-MEL-5; [4]): 32.8%
- inhibition at 10 µM (LOX IMVI): 27.6%
- inhibition at 10 µM (OVCAR-3): 32.2%
- inhibition at 10 µM (SK-MEL-28; [7]): 10.6%
- inhibition at 10 µM (HOP-62; [8]): 25.1%

Structure (SMILES): Cc1ccc(C=NNC(=O)c2ccc(S(C)(=O)=O)cc2)cc1 [Compound 9, N'-(4-Methylbenzylidene)-4-(methylsulfonyl)benzohydrazide]
- inhibition at 10 µM (K-562; [6]): 44.1%
- inhibition at 10 µM (MDA-MB-231/ATCC): < 10%
- inhibition at 10 µM (SW-620): 15.2%
- inhibition at 10 µM (NCI/ADR-RES): 14.6%
- %G0-G1 (HL60 cells): 43.15%
- %G2-M (HL60 cells): 29.44%
- %Pre-G1 (HL60 cells): 16.89%
- %S (HL60 cells): 27.41%
- inhibition at 10 µM (NCI-H460): < 10%
- inhibition at 10 µM (SN12C): < 10%
- PCE: positive cytotoxic effect (number of cell lines with GI 10 to 100% / total number of cell lines) [2]: 27/59
- inhibition at 10 µM (ACHN): < 10%
- inhibition at 10 µM (SF-268): < 10%
- inhibition at 10 µM (OVCAR-5): < 10%
- inhibition at 10 µM (SK-MEL-5; [4]): 13.5%
- inhibition at 10 µM (LOX IMVI): < 10%
- inhibition at 10 µM (OVCAR-3): < 10%
- inhibition at 10 µM (SK-MEL-28; [9]): < 10%
- inhibition at 10 µM (HOP-62; [5]): < 10%

Structure (SMILES): CS(=O)(=O)c1ccc(C(=O)N/N=C/c2ccccc2O)cc1 [Compound 16]
- inhibition at 10 µM (K-562; [6]): 59.5%
- inhibition at 10 µM (MDA-MB-231/ATCC): 52.6%
- inhibition at 10 µM (SW-620): 56.7%
- inhibition at 10 µM (NCI/ADR-RES): 70.1%
- %G0-G1 (HL60 cells): 39.42%
- %G2-M (HL60 cells): 38.09%
- %Pre-G1 (HL60 cells): 22.41%
- %S (HL60 cells): 22.49%
- inhibition at 10 µM (NCI-H460): 85.9%
- inhibition at 10 µM (SN12C): 41.4%
- PCE: positive cytotoxic effect (number of cell lines with GI 10 to 100% / total number of cell lines) [2]: 59/59
- inhibition at 10 µM (ACHN): 71.7%
- inhibition at 10 µM (SF-268): 61.6%
- inhibition at 10 µM (OVCAR-5): 35.3%
- inhibition at 10 µM (SK-MEL-5; [4]): 67.8%
- inhibition at 10 µM (LOX IMVI): 78.6%
- inhibition at 10 µM (OVCAR-3): 77.2%
- inhibition at 10 µM (SK-MEL-28; [7]): 44.1%
- inhibition at 10 µM (HOP-62; [8]): 71.8%

Structure (SMILES): CCN(CC)c1ccc(/C=N/NC(=O)c2ccc(S(C)(=O)=O)cc2)c(O)c1 [Compound 20]
- GI50 (K-562; K562, K-562, five concentrations 0.01-100 µM): 604 nM
- inhibition at 10 µM (K-562; [3]): 87.6%
- GI50 (MDA-MB-231/ATCC; [10]): 308 nM
- inhibition at 10 µM (MDA-MB-231/ATCC): 56.8%
- GI50 (SW-620; [10]): 387 nM
- inhibition at 10 µM (SW-620): 67%
- GI50 (NCI/ADR-RES; [10]): 324 nM
- inhibition at 10 µM (NCI/ADR-RES): 82.2%
- %G0-G1 (HL60 cells): 36.28%
- %G2-M (HL60 cells): 34.29%
- %Pre-G1 (HL60 cells): 24.31%
- %S (HL60 cells): 29.43%
- GI50 (NCI-H460; [10]): 113 nM
- inhibition at 10 µM (NCI-H460): 96.7%
- GI50 (SN12C; [10]): 354 nM
- inhibition at 10 µM (SN12C): 68.8%
- GI50 ([2]; Homo sapiens, read-out: GI50 (range over cell lines)): 63 to 11700 nM
- GI50 ([2]; Homo sapiens, read-out: GI50 MG-MID (full panel mean-graph midpoint)): 260 nM
- CC50 ([2]; Homo sapiens, read-out: LC50 MG-MID (full panel mean-graph midpoint)): > 100000 nM
- TGI MG-MID (full panel mean-graph midpoint) ([2]; full panel): 46800 nM
- PCE: positive cytotoxic effect (number of cell lines with GI 10 to 100% / total number of cell lines) [2]: 59/59
- fold more potent than 5-Fu ([2]; ratio of GI50 MG_MID): ~3 fold
- fold more potent than celecoxib ([2]; ratio of GI50 MG_MID): ~65 fold
- fold more potent than erlotinib ([2]; ratio of GI50 MG_MID): ~30 fold
- fold more potent than gefitinib and sorafenib ([2]; ratio of GI50 MG_MID): ~9 fold
- GI50 (ACHN; [10]): 117 nM
- inhibition at 10 µM (ACHN): 82.9%
- GI50 (SF-268; [10]): 78.9 nM
- inhibition at 10 µM (SF-268): 78.2%
- GI50 (OVCAR-5; [10]): 6480 nM
- inhibition at 10 µM (OVCAR-5): 67.5%
- inhibition at 10 µM (SK-MEL-5; Homo sapiens, SK-MEL-5, SK-MEL-5, one dose 10 µM): 100%
- GI50 (SK-MEL-5; Homo sapiens, SK-MEL-5, five concentrations 0.01-100 µM): 223 nM
- Growth inhibition percentage (GI%) (SK-MEL-5; SK-MEL-5, one dose 10 µM): >100%
- GI50 (LOX IMVI; [10]): 99.7 nM
- inhibition at 10 µM (LOX IMVI): 90.3%
- GI50 (OVCAR-3; [10]): 125 nM
- inhibition at 10 µM (OVCAR-3): 66.6%
- inhibition at 10 µM (SK-MEL-28; [9]): 72.9%
- GI50 (SK-MEL-28; Homo sapiens, SK-MEL-28, five concentrations 0.01-100 µM): 340 nM
- Growth inhibition percentage (GI%) (SK-MEL-28; SK-MEL-28, one dose 10 µM): 72.8%
- GI50 (HOP-62; HOP-62, five concentrations 0.01-100 µM): 85 nM
- inhibition at 10 µM (HOP-62; [5]): 87.1%
